Values quoted from earlier work in article PMC2637266, “Quantification of gamma-secretase modulation differentiates inhibitor compound selectivity between two substrates Notch and amyloid precursor protein” (Molecular Brain, 2008).

Experiments:
[1] = system: brain cortical γ-secretase; design: method as in PMID 15857627; conditions: guinea pig; cited from earlier work
[2] = system: zebrafish embryos; design: method as in PMID 12101103; conditions: treatment at late blastula stage; cited from earlier work
[3] = target: γ-secretase; conditions: read-out: IC50 for de novo Aβ and AICD generation in vitro; cited from earlier work

| Structure (SMILES) | brain cortical γ-secretase activity [1] | plasma, CSF and brain Aβ levels [1] | zebrafish somitogenesis and neurogenesis [2] | IC50 [3] [nM] |
| --- | --- | --- | --- | --- |
| C[C@H](NC(=O)Cc1cc(F)cc(F)c1)C(=O)N[C@H]1N=C(c2ccccc2)c2ccccc2N(C)C1=O [cpd E, (S,S)-2-[2-(3,5-Difluorophenyl)-acetylamino]-N-(1-methyl-2-oxo-5-phenyl-2,3-dihydro-1H-benzo [e] [1,4]diazepin-3-yl)-propionamide] | dose-dependent inhibition of brain cortical γ-secretase activity | decreases in plasma, CSF and brain Aβ levels | – | – |
| C[C@H](NC(=O)Cc1cc(F)cc(F)c1)C(=O)N[C@H](C(=O)OC(C)(C)C)c1ccccc1 [DAPT, N-[N-(3,5-Difluorophenacetyl-L-alanyl)]-S-phenylglycine t-Butyl Ester] | – | – | caused defects in somitogenesis and neurogenesis | 10 to 100 |
